Data from US8802414B2, “Methods and materials for reducing biofilms” (priority 2007, dated 2014).
Entries after “also recorded” stand apart in the source; their conditions may differ.

How the values were obtained:
[1] = tested on: pre-formed S. lugdunensis biofilms; test: Microtiter plate biofilm detachment assay; format: cell-based, Staphylococcus lugdunensis
Protocol: 40 mM sodium metaperiodate (NaIO4, Sigma-Aldrich) in water, 40 μg/mL purified recombinant dispersin B (obtained from Kane Biotech Inc., Winnipeg, Manitoba, Canada) in sodium phosphate buffer (50 mM sodium phosphate (pH 5.8), 100 mM NaCl), 100 μg/mL proteinase K (Roche Applied Science) in 10 mM Tris-HCl pH 7.5, 10 U/mL trypsin (Promega Corp., Madison, Wis.) in 10 mM Tris-HCl pH 7.5, 100 μg/mL chymotrypsin (Sigma-Aldrich) in 10 mM Tris-HCl pH 7.5, and 100 μg/mL thermolysin (Sigma-Aldrich) in 10 mM Tris-HCl pH 7.5 were tested for their ability to detach pre-formed S. lugdunensis biofilms from polystyrene microtiter plate wells. For certain experiments, proteinase K was inactivated by boiling for 40 minutes.
Biofilms grown in TSBgluc1% were formed in wells of microtiter plates and washed twice with deionized water, as described above for the microtiter plate biofilm formation assay. 100 μL of NaIO4, enzyme, or suitable control was carefully added so as not to mechanically detach biofilms on the bottoms of wells. Plates were incubated at 37° C. for 2 hours, and contents of wells were discarded and washed twice with deionized water. Plates were air-dried overnight, stained with 0.1% safranin for 1 minute, and processed as described above to quantify the amount of stained biofilm remaining after treatment, relative to treatment with the control reagent. Four wells were measured for each treatment condition. Assays were repeated two or three times on separate days with similar results.

[2] = tested on: pre-formed biofilms of S. epidermidis RP62A; test: Microtiter plate biofilm detachment assay; format: cell-based, Staphylococcus epidermidis; conditions: 2 hours at 37° C.; safranin OD492
[3] = tested on: pre-formed biofilms of S. carnosus TM300+pCN27; test: Microtiter plate biofilm detachment assay; format: cell-based, Staphylococcus carnosus; conditions: 2 hours at 37° C.; safranin OD492
[4] = tested on: S. epidermidis RP62A; test: Microtiter plate biofilm formation assay; format: cell-based, Staphylococcus epidermidis
Protocol: (§1) Bacteria stored at −70° C. were freshly streaked on sheep's blood agar or trypticase soy agar before each replicate experiment. For microtiter plate biofilm formation and detachment assays, immunodetection assays, and confocal microscopy assays (unless stated otherwise), isolated colonies from 16 to 24 hour-old plates were grown in trypticase soy broth (BD BBL, Franklin Lakes, N.J.) supplemented with 1% (w/v) sterile-filtered glucose (TSBgluc1%) with shaking at 130 rpm for 22-24 hours. Unless otherwise noted, all experiments were incubated in ambient air at 37° C.
(§2) Biofilm formation was assayed using a microtiter plate assay as described elsewhere (Christensen et al., J. Clin. Microbiol., 22:996-1006 (1985)), with modifications as described elsewhere (Chaignon et al., Appl. Microbiol. Biotechnol., 75(1):125-132 (2007) and Frank and Patel, Diagn. Microbiol. Infect. Dis., 57:355-359 (2007)). Briefly, cultures were adjusted with TSBgluac1% to match the turbidity of a 1.0 McFarland standard (˜1-2×10^8 cfu/mL) and diluted 1:50 in TSBgluc1% or TSBgluc1% containing various concentrations of sodium chloride (1-5%, w/v) or ethanol (0.5-4%, v/v). For experiments examining the effect of glucose concentration on biofilm formation, bacteria were grown overnight, adjusted to 1.0 McFarland, and diluted in TSB containing the corresponding amount of glucose being tested (0.5-5%, w/v). 200 μL aliquots of each diluted culture were placed into four wells of 96-well microtiter plates (Nuclon Delta, Nalge Nunc International, Rochester, N.Y.), and incubated for 24 hours. Cell growth was measured by reading the OD600 nm on a microplate reader (Multiskan, Thermo Electron, Waltham, Mass.). Culture media was discarded, and wells were washed twice by fully submerging plates in deionized water to remove non-adherent cells and allowed to air-dry overnight. Biofilms remaining in the wells were stained with 0.1% safranin for 1 minute, rinsed under running tap water to remove excess stain, and air-dried overnight. In order to ensure homogeneity among stained material in the wells, stained biofilms were resuspended in 200 μL of 30 percent glacial acetic acid, and the OD492 nm was measured.

[5] = tested on: S. lugdunensis clinical isolates; test: Microtiter plate biofilm formation assay; format: cell-based, Staphylococcus lugdunensis
Protocol: as §1, §2

[6] = tested on: S. aureus SA113; test: Microtiter plate biofilm formation assay; format: cell-based, Staphylococcus aureus
Protocol: as §1, §2

[7] = 2 hours at 37° C., safranin OD492, 15 clinical isolates
[8] = increasing ethanol concentrations (0.5-4% v/v) in TSBgluc1%
[9] = increasing salt concentrations (1-5% sodium chloride)

trypsin
biofilm detachment compared to buffer [1, 7]: Concordant results
biofilm release ([1]; isolates IDRL-2414 and IDRL-2526, 10 U/mL, 2 hours at 37° C.): noticeably more resistant to release
biofilm detachment compared to buffer [2]: Concordant results
biofilm detachment compared to buffer [3]: Concordant results

[Na+].[O-][I+3]([O-])([O-])[O-] [sodium metaperiodate]
S. lugdunensis biofilms on whose release there was moderate to little effect ([1]; 40 mM, 2 hours at 37° C., 8/15 isolates): 53%
biofilm detachment compared to buffer ([1]; seven isolates IDRL-2394, IDRL-2526, IDRL-2554, IDRL-2588, IDRL-2622, IDRL-2640, IDRL-5258, 40 mM, 2 hours): greater susceptibility
biofilm detachment compared to buffer [2]: substantial detachment
biofilm detachment compared to buffer [3]: essentially completely released

CCO [ethanol]
biofilm production [4, 8]: significant reductions in biofilm production
adherence ([5]; 2% ethanol, all S. lugdunensis that formed measurable baseline biofilms): prevent the adherence
killing / growth of isolates ([5]; 2% ethanol, isolates IDRL-2554, IDRL-2640 and IDRL-5254 only): killed; also recorded: inhibited growth
killing of bacteria ([5]; 4% ethanol, all S. lugdunensis isolates): bactericidal
levels of biofilm production ([5]; most ethanol concentrations, isolates with baseline biofilm OD492 >=0.150): reduced the levels of biofilm production
biofilm production [6, 8]: significant reductions in biofilm production

[Cl-].[Na+] [sodium chloride]
biofilm compared to baseline biofilm formation ([4]; 5% sodium chloride): not affected
biofilm levels ([4]; TSBgluc1% with 1-3% sodium chloride): increase
growth (optical density of the biomass in each well) [4, 9]: not affected
biofilm formation ([5]; 5% sodium chloride): Essentially no measurable quantity of biofilm could be detected
S. lugdunensis isolates that formed more biofilm ([5]; TSBgluc1% containing 1 or 2% sodium chloride, 11/15 isolates): 73%
adherence to microtiter wells ([5]; higher concentrations of salt (above 2% sodium chloride)): substantially reduced
growth (optical density of the biomass in each well) [5, 9]: not affected
biofilm compared to baseline biofilm formation ([6]; 5% sodium chloride): significantly reduced, yet still discernable
biofilm levels ([6]; TSBgluc1% with 1-2% sodium chloride): increase
growth (optical density of the biomass in each well) [6, 9]: not affected

chymotrypsin
biofilm detachment compared to buffer [1, 7]: detach S. lugdunensis biofilms selectively
